Measured values: ChEMBL document CHEMBL3745676, “Alkylamino derivatives of N-benzylpyrazine-2-carboxamide: synthesis and antimycobacterial evaluation” (Medchemcomm, 2015)
The source made the active and inactive calls. The rule behind the calls is not given here.

Experiments:
[1] = Lipophilicity, logK of the compound by RP-HPLC analysis; type: physicochemical
[2] = test system: Mycobacterium tuberculosis; assay: Antimycobacterial activity against Mycobacterium tuberculosis H37Rv CNCTC My 331/88 incubated for 10 to 14 days by microplate alamar blue assay; type: functional
[3] = test system: Mycobacterium kansasii; assay: Antimycobacterial activity against Mycobacterium kansasii CNCTC My 235/80 incubated for 5 to 7 days by microplate alamar blue assay; type: functional
[4] = Cytotoxicity against CRFK cells assessed as cell viability after 4 to 6 days by formazan-based MTS assay; set-up: species or system Felis catus; conditions: cat
[5] = Cytotoxicity against HEL cells assessed as cell viability after 4 to 6 days by microscopic analysis; type: cell-based; conditions: human
[6] = Cytotoxicity against human HeLa cells assessed as cell viability after 4 to 6 days by microscopic analysis; type: cell-based
[7] = Cytotoxicity against African green monkey Vero cells assessed as cell viability after 4 to 6 days by microscopic analysis; type: cell-based; conditions: chlorocebus sabaeus
[8] = Cytotoxicity against MDCK cells assessed as cell viability after 4 to 6 days by formazan-based MTS assay; set-up: species or system Canis lupus familiaris; conditions: dog
[9] = Cytotoxicity against MDCK cells assessed as cell viability after 4 to 6 days by microscopic analysis; type: cell-based, Canis lupus familiaris; conditions: dog
[10] = test system: Influenza A virus; assay: Antiviral activity against Influenza A virus (A/Puerto Rico/8/(H1N1)) assessed as inhibition of virus-induced cytopathic effect after 3 to 6 days by formazan-based MTS assay; type: functional, organism-based
[11] = test system: Mycobacterium avium; assay: Antimycobacterial activity against Mycobacterium avium CNCTC My 80/72 after 5 days by microplate alamar blue assay; type: functional; conditions: CNCTC My 80/72, 120 h
[12] = test system: Mycobacterium avium; assay: Antimycobacterial activity against Mycobacterium avium CNCTC My 152/73 after 5 days by microplate alamar blue assay; type: functional; conditions: CNCTC My 152/73, 120 h
[13] = test system: Escherichia coli; assay: Antibacterial activity against Escherichia coli CCM 4517 after 24 to 48 hrs by broth microdilution method; type: functional
[14] = test system: Pseudomonas aeruginosa; assay: Antibacterial activity against Pseudomonas aeruginosa CCM 1961 after 24 to 48 hrs by broth microdilution method; type: functional
[15] = test system: Klebsiella pneumoniae; assay: Antibacterial activity against Klebsiella pneumoniae D 11750/08 after 24 to 48 hrs by broth microdilution method; type: functional
[16] = test system: Klebsiella pneumoniae; assay: Antibacterial activity against ESBL positive Klebsiella pneumoniae J 14368/08 after 24 to 48 hrs by broth microdilution method; type: functional
[17] = test system: Candida albicans; assay: Antifungal activity against Candida albicans ATCC 44859 after 24 to 48 hrs by broth microdilution method; type: functional
[18] = test system: Candida tropicalis; assay: Antifungal activity against Candida tropicalis 156 after 24 to 48 hrs by broth microdilution method; type: functional
[19] = test system: Pichia kudriavzevii; assay: Antifungal activity against Candida krusei E28 after 24 to 48 hrs by broth microdilution method; type: functional
[20] = test system: Nakaseomyces glabratus; assay: Antifungal activity against Candida glabrata 20/I after 24 to 48 hrs by broth microdilution method; type: functional
[21] = test system: Trichosporon asahii; assay: Antifungal activity against Trichosporon asahii 1188 after 24 to 48 hrs by broth microdilution method; type: functional
[22] = test system: Aspergillus fumigatus; assay: Antifungal activity against Aspergillus fumigatus 231 after 24 to 48 hrs by broth microdilution method; type: functional
[23] = test system: Lichtheimia corymbifera; assay: Antifungal activity against Lichtheimia corymbifera 272 after 24 to 48 hrs by broth microdilution method; type: functional
[24] = test system: Trichophyton mentagrophytes; assay: Antifungal activity against Trichophyton mentagrophytes 445 after 72 to 120 hrs by broth microdilution method; type: functional
[25] = test system: Influenza A virus; assay: Antiviral activity against Influenza A virus (A/Puerto Rico/8/(H1N1)) assessed as inhibition of virus-induced cytopathic effect after 3 to 6 days by microscopic analysis; type: functional, organism-based
[26] = test system: Staphylococcus aureus; assay: Antibacterial activity against methicillin-resistant Staphylococcus aureus H 5996/08 after 24 to 48 hrs by broth microdilution method; type: functional, organism-based

Compound	log K [1]	MIC [2]	MIC [3]	CC50 [4] [µM]	MCC [5] [µM]	MCC [6] [µM]	MCC [7] [µM]	CC50 [8] [µM]	MCC [9] [µM]	EC50 [10] [µM]	MIC [11] [µg/mL]	MIC [12] [µg/mL]	MIC95 [13] [µM]	MIC95 [14] [µM]	MIC95 [15] [µM]	MIC95 [16] [µM]	MIC [17] [µM]	MIC [18] [µM]	MIC [19] [µM]	MIC [20] [µM]	further results
CCCCCNc1nccnc1C(=O)NCc1ccccc1	1.321	> 100 µg/mL	> 100 µg/mL	> 100	≥ 100	> 100	> 100	> 100	≥ 20	> 100	> 100	> 100	> 500	> 500	> 500	> 500	> 500	> 500	> 500	> 500	MIC [21]: > 500 µM; MIC [22]: > 500 µM; MIC [23]: > 500 µM; MIC [24]: > 500 µM; EC50 [25]: > 100 µM
CCCCNc1cncc(C(=O)NCc2ccccc2)n1	0.549	44 µM	176 µM	> 100	> 100	> 100	100	66	100	> 100	> 100	> 100	> 500	> 500	> 500	> 500	> 500	> 500	> 500	> 500	Activity [26]: inactive; MIC [21]: > 500 µM; MIC [22]: > 500 µM; MIC [23]: > 500 µM; MIC [24]: > 500 µM; EC50 [25]: > 100 µM
O=C(NCc1ccccc1)c1nccnc1Cl	–	50 µM	100 µg/mL	–	–	–	–	–	–	–	> 100	> 100	–	–	–	–	–	–	–	–	–
CCCCCCNc1nccnc1C(=O)NCc1ccccc1	1.564	> 100 µg/mL	> 100 µg/mL	> 100	100	> 100	> 100	> 100	100	> 100	> 100	> 100	> 500	> 500	> 500	> 500	> 500	> 500	> 500	> 500	MIC [21]: > 500 µM; MIC [22]: > 500 µM; MIC [23]: > 500 µM; MIC [24]: > 500 µM; EC50 [25]: > 100 µM
NC(=O)c1cnccn1 [PYRAZINAMIDE]	-0.687	102 µM	> 100 µg/mL	–	–	–	–	–	–	–	–	–	–	–	–	–	–	–	–	–	–
CCCCCNc1cncc(C(=O)NCc2ccccc2)n1	0.768	42 µM	84 µM	> 100	> 100	> 100	> 100	33	20	> 100	> 100	> 100	> 500	> 500	> 500	> 500	> 500	> 500	> 500	> 500	Activity [26]: inactive; MIC [21]: > 500 µM; MIC [22]: > 500 µM; MIC [23]: > 500 µM; MIC [24]: > 500 µM; EC50 [25]: > 100 µM
CCCCCCNc1cncc(C(=O)NCc2ccccc2)n1	0.986	20 µM	40 µM	> 100	> 100	> 100	100	9.5	20	> 100	> 100	> 100	> 500	> 500	> 500	> 500	> 500	> 500	> 500	> 500	Activity [26]: inactive; MIC [21]: > 500 µM; MIC [22]: > 500 µM; MIC [23]: > 500 µM; MIC [24]: > 500 µM; EC50 [25]: > 100 µM
CCCCNc1nccnc1C(=O)NCc1ccccc1	1.081	> 100 µg/mL	> 100 µg/mL	> 100	> 100	> 100	> 100	> 100	> 100	> 100	> 100	> 100	> 500	> 500	> 500	> 500	> 500	> 500	> 500	> 500	MIC [21]: > 500 µM; MIC [22]: > 500 µM; MIC [23]: > 500 µM; MIC [24]: > 500 µM; EC50 [25]: > 100 µM
